Reference: PMC9101642 (Molecules, 2022)
Marks after values point to notes of the source that are not given here.

Tests used:
ERα = target: T1, ERα (Homo sapiens, UniProt P03372); experiment: Fluorescence polarization competition assay: antagonistic potency and relative binding affinity; conditions: for Ki: calculated antagonistic (inhibitory) constant, read-out: Ka ERα; for IC50: concentration that antagonizes 50% of ERα signaling activity, read-out: ERα (IC50 nM); for logRBA ERα: log of % relative binding affinity, estradiol = 100%; for ERα potency, fold higher than Ral: ratio of IC50 values
T1 sequence (P03372 1-595): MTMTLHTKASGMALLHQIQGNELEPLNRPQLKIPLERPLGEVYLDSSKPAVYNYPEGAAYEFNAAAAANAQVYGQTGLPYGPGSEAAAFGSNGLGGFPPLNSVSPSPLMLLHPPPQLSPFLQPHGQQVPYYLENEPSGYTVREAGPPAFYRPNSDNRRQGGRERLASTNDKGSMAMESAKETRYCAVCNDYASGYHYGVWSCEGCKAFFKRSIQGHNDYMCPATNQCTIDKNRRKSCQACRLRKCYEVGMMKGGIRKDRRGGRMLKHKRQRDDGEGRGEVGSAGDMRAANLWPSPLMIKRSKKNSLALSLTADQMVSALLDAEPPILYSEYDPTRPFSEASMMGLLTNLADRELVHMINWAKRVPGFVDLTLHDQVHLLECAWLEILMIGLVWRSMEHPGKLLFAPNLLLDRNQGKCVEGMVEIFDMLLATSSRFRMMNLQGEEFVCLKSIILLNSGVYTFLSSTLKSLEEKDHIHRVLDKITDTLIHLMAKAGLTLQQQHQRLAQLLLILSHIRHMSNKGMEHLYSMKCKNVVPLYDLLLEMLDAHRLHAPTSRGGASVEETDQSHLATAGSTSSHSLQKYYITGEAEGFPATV

ERβ = ERβ (Homo sapiens, UniProt Q92731); experiment: as above; conditions: for Ki: calculated antagonistic (inhibitory) constant, read-out: Ka ERβ; for IC50: concentration that antagonizes 50% of ERβ signaling activity, read-out: ERβ (IC50 nM); for logRBA ERβ: log of % relative binding affinity, estradiol = 100%
[1] = Serum biochemical markers after treatment of MNU-induced rats; format: in vivo, Wistar rats; design: TBC: unit not given here; conditions: for ALP (A/L) / ALT (A/L) / AST (U/L) / γ-GT (U/L): serum; for TBC: total bilirubin content
Procedure, shortened: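 Mammary tumours induced in rats by MNU 50 mg/kg i.p. at day 50; after two weeks, compounds given orally at 5 or 50 mg/kg once daily for six weeks. Serum AST, ALT (340 nm), ALP (405 nm) and bilirubin measured; liver homogenate GSH, CAT, MDA by colorimetry; plasma binding by ultrafiltration at 37°C with BCA protein read-out.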

[2] = tested on: MNU-induced breast cancer tissue; experiment: Histopathology of breast sections; format: in vivo, Wistar rats
Procedure, shortened: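 Rats with MNU-induced breast cancer were given selected leads at two concentrations. Breast tissue was examined histopathologically for lobuloalveolar units and epithelial changes, with slides photographed at 200x.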

ERβ, sequence (Q92731 whole entry): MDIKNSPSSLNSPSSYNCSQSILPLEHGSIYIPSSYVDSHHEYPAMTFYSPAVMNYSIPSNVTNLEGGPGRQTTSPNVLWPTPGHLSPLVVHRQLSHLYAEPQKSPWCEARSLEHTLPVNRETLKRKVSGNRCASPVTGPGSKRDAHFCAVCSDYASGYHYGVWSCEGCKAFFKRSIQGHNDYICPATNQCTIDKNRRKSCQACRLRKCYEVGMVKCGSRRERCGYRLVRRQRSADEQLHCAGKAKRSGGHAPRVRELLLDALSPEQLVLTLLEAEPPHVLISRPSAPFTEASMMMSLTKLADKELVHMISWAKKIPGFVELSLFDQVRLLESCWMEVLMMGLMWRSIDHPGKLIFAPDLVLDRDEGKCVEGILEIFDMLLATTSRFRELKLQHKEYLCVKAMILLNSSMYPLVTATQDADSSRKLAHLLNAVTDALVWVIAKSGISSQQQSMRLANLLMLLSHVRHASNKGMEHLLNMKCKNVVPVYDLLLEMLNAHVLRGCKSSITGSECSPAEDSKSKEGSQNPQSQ

## CC(=O)c1cc(C(=O)O[C@@H]2/C=C/C(=O)O[C@@H](O)CCC/C=C/[C@@H]3C[C@H](O)C[C@H]32)ccc1OCCN(C)C [Compound 3DPQ-2, (1R,2E,6R,10E,11aS,13S,14aR)-6,13-dihydroxy-4-oxo-4,6,7,8,9,11a,12,13,14,14a-decahydro-1H-cyclopenta[f][1]oxacyclotridecin-1-yl 3-acetyl-4-(2-(dimethylamino)ethoxy)benzoate]
ERα
  Ki: 0.12 nM
  IC50: 0.54 ± 0.31 nM
  logRBA ERα: 2.22 ^†,‡,§
  ERα potency, fold higher than Ral: 1.37 fold
ERβ
  Ki: 43.4 nM
  IC50: 77.24 ± 0.42 nM
  logRBA ERβ: 0.06 ^†,‡,§
[1]; dose 5 mg/kg
  ALP (A/L): 98.53±0.14 A/L
  ALT (A/L): 46.89±0.74 A/L
  AST (U/L): 56.43±0.21 U/L
  γ-GT (U/L): 16.52±0.42 U/L
  TBC: 16.43
[1]; dose 50 mg/kg
  ALP (A/L): 119.47±0.13 A/L
  ALT (A/L): 49.47±0.64 A/L
  AST (U/L): 59.54±0.32 U/L
  γ-GT (U/L): 17.35±0.56 U/L
  TBC: 17.72
[2]; 5 mg/kg of bwt
  breast section histopathology: lobuloalveolar unit (LaU) and cuboidal epithelial cells (CE)

## CNCCOc1ccc(C(=O)O[C@@H]2/C=C/C(=O)O[C@@H](O)CCC/C=C/[C@@H]3C[C@H](O)C[C@H]32)cc1C(C)=O [Compound 3DPQ-1, (1R,2E,6R,10E,11aS,13S,14aR)-6,13-dihydroxy-4-oxo-4,6,7,8,9,11a,12,13,14,14a-decahydro-1H-cyclopenta[f][1]oxacyclotridecin-1-yl 3-acetyl-4-(2-(methylamino)ethoxy)benzoate]
ERα
  Ki: 0.13 nM
  IC50: 0.57 ± 0.54 nM
  logRBA ERα: 2.19 ^‡,§
  ERα potency, fold higher than Ral: 1.30 fold
ERβ
  Ki: 41.8 nM
  IC50: 74.33 ± 0.46 nM
  logRBA ERβ: 0.08 ^†,‡,§
[1]; dose 5 mg/kg
  ALP (A/L): 104.53±0.75 A/L
  ALT (A/L): 51.63±0.32 A/L
  AST (U/L): 44.78±0.61 U/L
  γ-GT (U/L): 13.54±1.74 U/L
  TBC: 15.43±0.32
[1]; dose 50 mg/kg
  ALP (A/L): 107.52±0.6 A/L
  ALT (A/L): 53.43±1.34 A/L
  AST (U/L): 49.54±0.65 U/L
  γ-GT (U/L): 16.43±0.76 U/L
  TBC: 19.41
[2]; 5 mg/kg of bwt
  breast section histopathology: lobuloalveolar unit (LaU) and cuboidal epithelial cells (CE)
[2]; 50 mg/kg of bwt
  breast section histopathology: lobuloalveolar unit (LaU) and cuboidal epithelial cells (CE)

## CC(=O)c1cc(C(=O)O[C@@H]2/C=C/C(=O)O[C@@H](O)CCC/C=C/[C@@H]3C[C@H](O)C[C@H]32)ccc1OCCN1CCCC(O)C1=O (stereo partly drawn) [Compound 3DPQ-12, (1R,2E,6R,10E,11aS,13S,14aR)-6,13-dihydroxy-4-oxo-4,6,7,8,9,11a,12,13,14,14a-decahydro-1H-cyclopenta[f][1]oxacyclotridecin-1-yl 3-acetyl-4-(2-(3-hydroxy-2-oxopiperidin-1-yl)ethoxy)benzoate]
ERα
  Ki: 0.09 nM
  IC50: 0.4 ± 0.43 nM
  logRBA ERα: 2.35 ^†,‡,§
  ERα potency, fold higher than Ral: 1.85 fold
ERβ
  Ki: 50.3 nM
  IC50: 89.45 ± 0.31 nM
  logRBA ERβ: 0.00 ^†,‡,§
[1]; dose 5 mg/kg
  ALP (A/L): 132.67±0.43 A/L
  ALT (A/L): 50.99±0.84 A/L
  AST (U/L): 51.54±0.74 U/L
  γ-GT (U/L): 13.53 U/L
  TBC: 19.28
[1]; dose 50 mg/kg
  ALP (A/L): 121.33±0.23 A/L
  ALT (A/L): 59.65±0.84 A/L
  AST (U/L): 52.69±0.95 U/L
  γ-GT (U/L): 15.54±0.83 U/L
  TBC: 23.43
[2]; 5 mg/kg of bwt
  breast section histopathology: lobuloalveolar unit (LaU) and cuboidal epithelial cells (CE)
[2]; 50 mg/kg of bwt
  breast section histopathology: lobuloalveolar unit (LaU) and cuboidal epithelial cells (CE)

## CC(=O)c1cc(C(=O)OC2/C=C/C(=O)O[C@@H](O)CCC/C=C/[C@@H]3C[C@H](O)C[C@@H]23)ccc1OCCN1CCC=C(C(=O)O)C1 (stereo partly drawn) [Compound 3DPQ-3, 1-(2-(2-acetyl-4-((((2E,6R,10E,11aS,13S,14aR)-6,13-dihydroxy-4-oxo-4,6,7,8,9,11a,12,13,14,14a-decahydro-1H-cyclopenta[f][1]oxacyclotridecin-1-yl)oxy)carbonyl)phenoxy)ethyl)-1,2,5,6-tetrahydropyridine-3-carboxylic acid]
ERα
  Ki: 0.1 nM
  IC50: 0.44 ± 0.31 nM
  logRBA ERα: 2.31 ^†,‡,§
  ERα potency, fold higher than Ral: 1.68 fold
ERβ
  Ki: 42.1 nM
  IC50: 74.86 ± 0.14 nM
  logRBA ERβ: 0.08 ^†,‡,§
[1]; dose 5 mg/kg
  ALP (A/L): 87.47±0.21 A/L
  ALT (A/L): 49.84±0.59 A/L
  AST (U/L): 58.43±0.31 U/L
  γ-GT (U/L): 10.36±0.45 U/L
  TBC: 17.54±0.36
[1]; dose 50 mg/kg
  ALP (A/L): 86.65±0.44 A/L
  ALT (A/L): 55.84±0.79 A/L
  AST (U/L): 61.63±0.47 U/L
  γ-GT (U/L): 11.64±0.84 U/L
  TBC: 20.32
[2]; 5 mg/kg of bwt
  breast section histopathology: lobuloalveolar unit (LaU) and cuboidal epithelial cells (CE)
[2]; 50 mg/kg of bwt
  breast section histopathology: lobuloalveolar unit (LaU) and cuboidal epithelial cells (CE)

## CC(=O)c1cc(C(=O)O[C@@H]2/C=C/C(=O)O[C@@H](O)CCC/C=C/[C@@H]3C[C@H](O)C[C@H]32)ccc1OCCN1CC(C(=O)O)=CCC1=O [Compound 3DPQ-9, 1-(2-(2-acetyl-4-((((1R,2E,6R,10E,11aS,13S,14aR)-6,13-dihydroxy-4-oxo-4,6,7,8,9,11a,12,13,14,14a-decahydro-1H-cyclopenta[f][1]oxacyclotridecin-1-yl)oxy)carbonyl)phenoxy)ethyl)-6-oxo-1,2,5,6-tetrahydropyridine-3-carboxylic acid]
ERα
  Ki: 0.1 nM
  IC50: 0.45 ± 0.14 nM
  logRBA ERα: 2.30 ^†,‡,§
  ERα potency, fold higher than Ral: 1.64 fold
ERβ
  Ki: 46.9 nM
  IC50: 83.56 ± 0.46 nM
  logRBA ERβ: 0.03 ^†,‡,§
[1]; dose 5 mg/kg
  ALP (A/L): 125.54±0.21 A/L
  ALT (A/L): 46.58±0.94 A/L
  AST (U/L): 64.52±0.43 U/L
  γ-GT (U/L): 10.32 U/L
  TBC: 22.33
[1]; dose 50 mg/kg
  ALP (A/L): 139.42±0.31 A/L
  ALT (A/L): 51.95±0.86 A/L
  AST (U/L): 69.76±0.74 U/L
  γ-GT (U/L): 12.36±0.53 U/L
  TBC: 24.46
[2]; 5 mg/kg of bwt
  breast section histopathology: lobuloalveolar unit (LaU) and cuboidal epithelial cells (CE)
[2]; 50 mg/kg of bwt
  breast section histopathology: lobuloalveolar unit (LaU) and cuboidal epithelial cells (CE)
